Tests used:
[1] = Apparent permeability across apical to basolateral side in MDCK-MDR1 cells at 1 to 10 uM measured after 1 hrs by LC/MS/MS analysis; assay type: ADME, cell-based, Canis lupus familiaris; conditions: dog, dose 1-10 µM
[2] = system: KARPAS-422; assay: Antiproliferative activity against human KARPAS-422 cells assessed as cell growth inhibition incubated for 72 hrs followed by compound dilution in growth medium and measured after 96 hrs by Alamar blue assay; assay type: functional, cell-based
[3] = Ratio of unbound drug concentration in brain to blood in Sprague-Dawley rat at 1 mg/kg, iv measured after 15 mins by LC/MS/MS analysis; assay type: ADME, organism-based; conditions: read-out: K(p,uu,brain)
[4] = target: T1, Histone-lysine N-methyltransferase EZH2 (Homo sapiens, UniProt Q15910); assay: Inhibition of EZH2 (unknown origin) using 3H-SAM as substrate incubated for 1 hour by filter binding method
T1 sequence (Q15910 whole entry): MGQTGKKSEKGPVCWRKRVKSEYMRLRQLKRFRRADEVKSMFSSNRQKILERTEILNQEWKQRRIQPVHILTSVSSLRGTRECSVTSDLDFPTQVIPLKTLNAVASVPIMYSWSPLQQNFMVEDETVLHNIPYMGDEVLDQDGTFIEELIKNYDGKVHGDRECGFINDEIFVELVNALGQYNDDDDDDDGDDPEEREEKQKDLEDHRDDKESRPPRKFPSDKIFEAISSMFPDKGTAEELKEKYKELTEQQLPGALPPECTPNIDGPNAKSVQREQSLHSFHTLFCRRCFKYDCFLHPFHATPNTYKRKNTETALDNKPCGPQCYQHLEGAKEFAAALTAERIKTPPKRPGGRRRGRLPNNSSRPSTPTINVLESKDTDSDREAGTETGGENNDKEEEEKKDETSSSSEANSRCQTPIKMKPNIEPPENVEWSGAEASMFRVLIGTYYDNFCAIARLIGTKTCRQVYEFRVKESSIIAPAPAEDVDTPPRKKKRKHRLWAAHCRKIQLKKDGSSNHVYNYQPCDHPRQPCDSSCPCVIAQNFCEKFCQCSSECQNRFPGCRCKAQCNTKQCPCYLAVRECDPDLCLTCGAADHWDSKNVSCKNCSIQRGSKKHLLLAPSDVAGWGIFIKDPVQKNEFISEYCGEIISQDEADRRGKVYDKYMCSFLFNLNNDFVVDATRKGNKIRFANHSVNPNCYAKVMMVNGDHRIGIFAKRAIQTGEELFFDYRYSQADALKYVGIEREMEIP

[5] = target: T1, Histone-lysine N-methyltransferase EZH2; assay: Inhibition of EZH2 in HEK293T cells assessed as H3K27me3 levels incubated for 48 hrs by flow cytometry; assay type: cell-based
[6] = Metabolic stability in human liver microsomes at 1 uM in presence of NADPH generating system by LC/MS/MS analysis; assay type: ADME, Microsome; conditions: read-out: Stability
[7] = Metabolic stability in mouse liver microsomes at 1 uM in presence of NADPH generating system by LC/MS/MS analysis; assay type: ADME, Microsome; conditions: read-out: Stability
[8] = system: MDR1; assay: Efflux ratio of apparent permeability across basolateral to apical side over apical to basolateral side in MDCK-MDR1 cells at 1 to 10 uM measured after 1 hrs by LC/MS/MS analysis; assay type: ADME, cell-based, Canis lupus familiaris; conditions: dog, dose 1-10 µM

Row | Structure (SMILES) | Papp A→B at 1 h, up to 10 µM [1] | IC50 [2] | Kp uu at 0.25 h [3] | IC50 [4] | IC50 [5] | microsomal CLint at 1 µM [6] | microsomal CLint at 1 µM [7] | efflux ratio at 1 h, up to 10 µM [8]
1 | Cc1cc(C)c(CN2CCc3c(Cl)cc(-c4c(C)noc4C)c(Cl)c3C2=O)c(=O)[nH]1 | 3.7 ×10⁻⁶ cm/s | 122 nM | < 0.003 | 1 nM | 16 nM | 210 µL/min/mg | 253 µL/min/mg | 4.8
2 | COc1cc(C)[nH]c(=O)c1CN1CCN(C)c2c(Cl)cc(-c3ccc(Cl)cc3F)c(Cl)c2C1=O |  |  |  | 72.1 nM |  | 97 µL/min/mg | 297 µL/min/mg | 
3 | Cc1cc(C)n(C)c(=O)c1CN1CCc2c(Cl)cc(-c3c(C)noc3C)c(Cl)c2C1=O | 10.5 ×10⁻⁶ cm/s | 4680 nM | 0.29 |  |  | 449 µL/min/mg | > 768 µL/min/mg | 
4 | COc1cc(C)[nH]c(=O)c1CN1CCN(C)c2ccc(-c3c(C)noc3C)c(Cl)c2C1=O | < 0.1 ×10⁻⁶ cm/s |  |  | 2.9 nM |  | 9 µL/min/mg |  | 
5 | COc1cc(C)[nH]c(=O)c1CN1CCN(C)c2c(Cl)cc(-c3ccc(CN4CCOCC4)cc3)c(Cl)c2C1=O |  |  |  | 220 nM |  | 41 µL/min/mg | 41 µL/min/mg | 
6 | CSc1cc(C)n(C)c(=O)c1CN1CCN(C)c2c(Cl)cc(-c3c(C)noc3C)c(Cl)c2C1=O | 0.2 ×10⁻⁶ cm/s | 10400 nM |  | 11.4 nM |  |  |  | 110
7 | Cc1noc(C)c1-c1cc(Cl)c2c(c1Cl)C(=O)N(Cc1c(C3CC3)cc(C)n(C)c1=O)CC2 | 5.2 ×10⁻⁶ cm/s |  |  | 302 nM |  | 490 µL/min/mg | > 768 µL/min/mg | 1.5
8 | COc1cc(C)n(C)c(=O)c1CN1CCc2c(Cl)cc(-c3c(C)noc3C)c(Cl)c2C1=O | 1 ×10⁻⁶ cm/s | 2950 nM |  | 11.6 nM |  | 117 µL/min/mg | 656 µL/min/mg | 23
9 | CCN1CCN(Cc2c(OC)cc(C)[nH]c2=O)C(=O)c2c(Cl)c(-c3c(C)noc3C)cc(Cl)c21 |  |  |  | 33.4 nM |  |  |  | 
10 | CSc1cc(C)[nH]c(=O)c1CN1CCN(C)c2c(Cl)cc(-c3c(C)noc3C)c(Cl)c2C1=O | < 0.1 ×10⁻⁶ cm/s | 125 nM |  | 0.9 nM |  |  |  | > 99
11 | CSc1cc(C)n(C)c(=O)c1CN1CCc2c(Cl)cc(-c3c(C)noc3C)c(Cl)c2C1=O | 0.3 ×10⁻⁶ cm/s | 632 nM |  | 1.3 nM |  | 235 µL/min/mg | 796 µL/min/mg | 110
12 | CSc1cc(C)n(C)c(=O)c1CN1CCNc2c(Cl)cc(-c3c(C)noc3C)c(Cl)c2C1=O | 0.2 ×10⁻⁶ cm/s | 1320 nM |  | 2.1 nM |  |  |  | 220
13 | COc1cc(C)[nH]c(=O)c1CN1CCN(C)c2c(Cl)cc(C(O)C3CCOCC3)c(Cl)c2C1=O (stereo not given) |  |  |  | 9.4 nM |  | 34 µL/min/mg | 91 µL/min/mg | 
14 | CCc1cc(C)n(C)c(=O)c1CN1CCc2c(Cl)cc(-c3c(C)noc3C)c(Cl)c2C1=O | 11 ×10⁻⁶ cm/s |  |  | 82 nM |  | > 768 µL/min/mg | > 768 µL/min/mg | 0.72
15 | COc1cc(C)[nH]c(=O)c1CN1CCN(C)c2c(Cl)cc(-c3ccc(N4CCOCC4)cc3)c(Cl)c2C1=O |  |  |  | 64.8 nM |  | 7 µL/min/mg | 8 µL/min/mg | 
16 | Cc1noc(C)c1-c1cc(Cl)c2c(c1Cl)C(=O)N(Cc1c(C(F)(F)F)cc(C)n(C)c1=O)CC2 | 4.9 ×10⁻⁶ cm/s |  |  | > 1000 nM |  | 287 µL/min/mg | 592 µL/min/mg | 2.4

Continued by falling IC50 [4], values first:

Row | Papp A→B at 1 h, up to 10 µM [1] | IC50 [2] | Kp uu at 0.25 h [3] | IC50 [4] | IC50 [5] | microsomal CLint at 1 µM [6] | microsomal CLint at 1 µM [7] | efflux ratio at 1 h, up to 10 µM [8] | Structure (SMILES)
17 |  |  |  | 541 nM |  |  |  |  | COc1cc(C)n(C)c(=O)c1CN1CCN(C)c2c(Cl)cc(-c3c(C)noc3C)c(Cl)c2C1=O
18 |  |  |  | 33.4 nM |  | 29 µL/min/mg | > 768 µL/min/mg |  | COc1cc(C)[nH]c(=O)c1CN1CCN(C)c2c(Cl)cc(OC(C)C)c(Cl)c2C1=O
19 |  |  |  | 2 nM |  | 206 µL/min/mg | 562 µL/min/mg |  | COc1cc(C)[nH]c(=O)c1CN1CCN(C)c2c(Cl)cc(C(C)C3CCOCC3)c(Cl)c2C1=O (stereo not given)
20 |  |  |  | 1.9 nM |  | 181 µL/min/mg | > 768 µL/min/mg |  | CCN(c1cc(Cl)c2c(c1Cl)C(=O)N(Cc1c(OC)cc(C)[nH]c1=O)CCN2C)C1CCOCC1
21 | < 0.1 ×10⁻⁶ cm/s |  |  | 1.8 nM |  |  |  | > 170 | CCc1cc(C)[nH]c(=O)c1CN1CCN(C)c2c(Cl)cc(-c3c(C)noc3C)c(Cl)c2C1=O
22 | < 0.1 ×10⁻⁶ cm/s | 245 nM |  | 0.87 nM | 208 nM | 80 µL/min/mg | 112 µL/min/mg | > 49 | COc1cc(C)[nH]c(=O)c1CN1CCN(C)c2c(Cl)cc(-c3c(C)noc3C)c(Cl)c2C1=O
23 | < 0.1 ×10⁻⁶ cm/s | 65 nM |  | 0.35 nM | 17 nM | 79 µL/min/mg | 123 µL/min/mg | > 51 | COc1cc(C)[nH]c(=O)c1CN1CCNc2c(Cl)cc(-c3c(C)noc3C)c(Cl)c2C1=O

— ChEMBL document CHEMBL5046305, “A Chemical Strategy toward Novel Brain-Penetrant EZH2 Inhibitors” (ACS Med Chem Lett, 2022)
